In patent US8101768B2, “Cyclic amine compound and pest control agent” (Nippon Soda Co., Ltd., priority 2004, dated 2012):

What was measured:
[1] = system: organophosphorous agent resistant two-spotted spider mites; test: Effect on Two-spotted Spider Mite (spray on kidney bean leaves); type: in vivo; details: 125 ppm, water dispersible powder of Formulation Example 1 sprayed, 17 female adults, 25° C., 65% humidity, 3 days
Summary of the method: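 Mortality of adult females counted after 3 days at 25 °C and 65% humidity, following a 125 ppm spray of wettable-powder dilution onto infested 7–10-day-old bean seedlings (17 mites per leaf). Two replicates.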

[2] = system: acaricide resistant citrus red mites; test: Effect on Citrus Red Mite (spray on mandarin orange leaves); type: in vivo; details: 31 ppm, emulsifiable concentrate of Formulation Example 2 sprayed, 10 female adults, 25° C., 65% humidity
Experimental: Effect on Citrus Red Mite
10 female adults of acaricide resistant citrus red mites were inoculated onto leaves of a mandarin orange placed on dishes, onto which each of liquid agents, diluted with water so as to adjust the respective concentration of the chemical compounds to 31 ppm according to the formulation of the emulsifiable concentrate shown in the aforementioned Formulation Example 2, was sprayed by using a rotating sparge tower. After they were left in a thermostatic chamber at 25° C. in 65% humidity for 3 days, and were then removed from the dishes, eggs laid for 3 days were investigated whether they could grow to adults or not on the eleventh day. As the results, the following chemical compounds killed 100% of the adults. 1-13, 1-15, 1-22, 1-27, 1-45, 1-54, 1-59, 1-63, 1-66, 1-69, 1-71, 1-72, 1-75, 1-80, 1-88, 1-89, 1-92, 1-93, 1-94, 1-97, 1-98, 1-100, 1-102, 1-105, 1-108, 1-133, 1-136, 1-142, 1-153, 1-181, 1-183, 1-186, 1-187, 1-188, 1-189, 1-190, 1-191,

## FC(F)(F)c1ccc(N2CC3CCC(C2)C3Oc2ccc(C(F)(F)F)cc2OCC2OCCO2)nc1 (centres unmarked) [5-203]
[1]
  rate of killed adults: 100%
[2]
  killed ... of the adults (eggs laid for 3 days investigated whether they could grow to adults on the eleventh day): 100%

## COCCOc1cc(C(F)(F)F)ccc1O[C@@H]1[C@@H]2CC[C@H]1CN(c1ccc(C(F)(F)F)cn1)C2 [5-124]
[1]
  rate of killed adults: 100%
[2]
  killed ... of the adults (eggs laid for 3 days investigated whether they could grow to adults on the eleventh day): 100%

## CCc1cc(Cl)ccc1OC1CCN(c2ccc(C(F)(F)F)cn2)CC1 [1-54]
[1]
  rate of killed adults: 100%
[2]
  killed ... of the adults (eggs laid for 3 days investigated whether they could grow to adults on the eleventh day): 100%

## N#Cc1ccc(N2C[C@H]3CC[C@@H](C2)[C@@H]3Oc2ccc(C(F)(F)F)cc2OCC2CC2)nc1 [5-120]
[1]
  rate of killed adults: 100%
[2]
  killed ... of the adults (eggs laid for 3 days investigated whether they could grow to adults on the eleventh day): 100%

## N#Cc1ccc(O[C@@H]2[C@@H]3CC[C@H]2CN(c2ccc(C(F)(F)F)cn2)C3)c(OCC2CC2)c1 [5-121]
[1]
  rate of killed adults: 100%
[2]
  killed ... of the adults (eggs laid for 3 days investigated whether they could grow to adults on the eleventh day): 100%

## CCCOc1cc(C(F)(F)F)ccc1OC1C2CCC1CN(c1ccc(C(F)(F)F)cn1)C2 (stereo not drawn) [5-97, 8β-[2-propoxy-4-(trifluoromethyl)phenoxy]-3-[5-(trifluoromethyl)-2-pyridyl]-3-azabicyclo[3.2.1]octane]
[1]
  rate of killed adults: 100%
[2]
  killed ... of the adults (eggs laid for 3 days investigated whether they could grow to adults on the eleventh day): 100%

## CC(C)CC(O)c1cc(C(F)(F)F)ccc1OC1C2CCC1CN(c1ccc(C(F)(F)F)cn1)C2 (centres unmarked) [5-239]
[1]
  rate of killed adults: 100%
[2]
  killed ... of the adults (eggs laid for 3 days investigated whether they could grow to adults on the eleventh day): 100%

## C=CCOc1cc(C(F)(F)F)ccc1OC1CCN(c2ccc(C(F)(F)F)cn2)CC1 [1-142]
[1]
  rate of killed adults: 100%
[2]
  killed ... of the adults (eggs laid for 3 days investigated whether they could grow to adults on the eleventh day): 100%

## CCCOc1cc(C(F)(F)F)ccc1OC1CCN(c2ccc(C(F)(F)F)cn2)C(C)C1 (centres unmarked) [1-93, 2-methyl-4-[2-propoxy-4-(trifluoromethyl)phenoxy]-1-[5-(trifluoromethyl)-2-pyridyl]piperidine]
[1]
  rate of killed adults: 100%
[2]
  killed ... of the adults (eggs laid for 3 days investigated whether they could grow to adults on the eleventh day): 100%

## O=S(=O)(Oc1cc(C(F)(F)F)ccc1OC1C2CCC1CN(c1ccc(C(F)(F)F)cn1)C2)C(F)(F)F (centres unmarked) [5-234]
[1]
  rate of killed adults: 100%
[2]
  killed ... of the adults (eggs laid for 3 days investigated whether they could grow to adults on the eleventh day): 100%

## CC1COC(c2cc(C(F)(F)F)ccc2O[C@@H]2[C@@H]3CC[C@H]2CN(c2ccc(C(F)(F)F)cn2)C3)N1 (some centres unmarked) [5-259]
[1]
  rate of killed adults: 100%
[2]
  killed ... of the adults (eggs laid for 3 days investigated whether they could grow to adults on the eleventh day): 100%

## CCOc1cc(C(F)(F)F)ccc1OC1CCN(c2ccc(C(F)(F)F)cn2)CC1 [1-89]
[1]
  rate of killed adults: 100%
[2]
  killed ... of the adults (eggs laid for 3 days investigated whether they could grow to adults on the eleventh day): 100%

## CCCCOc1cc(C(F)(F)F)ccc1OC1C2CCC1CN(c1ccc(C(F)(F)F)cn1)C2 (centres unmarked) [5-224]
[1]
  rate of killed adults: 100%
[2]
  killed ... of the adults (eggs laid for 3 days investigated whether they could grow to adults on the eleventh day): 100%

## FC(F)(F)c1ccc(N2CC3CCC(C2)C3Oc2ccc(C(F)(F)F)cc2C2OCCO2)nc1 (centres unmarked) [5-215]
[1]
  rate of killed adults: 100%
[2]
  killed ... of the adults (eggs laid for 3 days investigated whether they could grow to adults on the eleventh day): 100%

## CCCOCc1cc(C(F)(F)F)ccc1OC1C2CCC1CN(c1ccc(C(F)(F)F)cn1)C2 (centres unmarked) [5-217]
[1]
  rate of killed adults: 100%
[2]
  killed ... of the adults (eggs laid for 3 days investigated whether they could grow to adults on the eleventh day): 100%

## COCOc1cc(C(F)(F)F)ccc1O[C@@H]1[C@@H]2CC[C@H]1CN(c1ccc(C#N)cn1)C2 [5-111]
[1]
  rate of killed adults: 100%
[2]
  killed ... of the adults (eggs laid for 3 days investigated whether they could grow to adults on the eleventh day): 100%

## FC(F)(F)c1ccc(N2C[C@H]3CC[C@@H](C2)[C@@H]3Oc2ccc(C(F)(F)F)cc2Br)nc1 [5-22]
[1]
  rate of killed adults: 100%
[2]
  killed ... of the adults (eggs laid for 3 days investigated whether they could grow to adults on the eleventh day): 100%

## Cc1coc(-c2cc(C(F)(F)F)ccc2O[C@@H]2[C@@H]3CC[C@H]2CN(c2ccc(C(F)(F)F)cn2)C3)n1 [5-261]
[1]
  rate of killed adults: 100%
[2]
  killed ... of the adults (eggs laid for 3 days investigated whether they could grow to adults on the eleventh day): 100%

## FC(F)(Br)Oc1ccc(OC2CCN(c3ccc(C(F)(F)F)cn3)CC2)cc1 [1-136]
[1]
  rate of killed adults: 100%
[2]
  killed ... of the adults (eggs laid for 3 days investigated whether they could grow to adults on the eleventh day): 100%

## CCOCOCc1cc(C(F)(F)F)ccc1OC1CCN(c2ccc(C(F)(F)F)cn2)CC1 [1-71]
[1]
  rate of killed adults: 100%
[2]
  killed ... of the adults (eggs laid for 3 days investigated whether they could grow to adults on the eleventh day): 100%

## FC(F)(F)c1ccc(N2C[C@H]3CC[C@@H](C2)[C@@H]3Oc2ccc(C(F)(F)F)cc2OCC2CC2)nc1 [5-116]
[1]
  rate of killed adults: 100%
[2]
  killed ... of the adults (eggs laid for 3 days investigated whether they could grow to adults on the eleventh day): 100%

## COCOc1cc(C(F)(F)F)ccc1OC1C2CCCC1CN(c1ccc(C(F)(F)F)cn1)C2 (stereo not drawn) [7-100, 9β-[2-methoxymethoxy-4-(trifluoromethyl)phenoxy]-3-[5-(trifluoromethyl)-2-pyridyl]-3-azabicyclo[3.3.1]nonane]
[1]
  rate of killed adults: 100%
[2]
  killed ... of the adults (eggs laid for 3 days investigated whether they could grow to adults on the eleventh day): 100%

## COC(C)OCc1cc(C(F)(F)F)ccc1O[C@@H]1[C@@H]2CC[C@H]1CN(c1ccc(C(F)(F)F)cn1)C2 (some centres unmarked) [5-72]
[1]
  rate of killed adults: 100%
[2]
  killed ... of the adults (eggs laid for 3 days investigated whether they could grow to adults on the eleventh day): 100%

## COCOc1cc(C(F)(F)F)ccc1O[C@@H]1[C@@H]2CC[C@H]1CN(c1ccc(C(F)(F)F)cn1)C2 [5-110]
[1]
  rate of killed adults: 100%
[2]
  killed ... of the adults (eggs laid for 3 days investigated whether they could grow to adults on the eleventh day): 100%

## CCOc1cc(C(F)(F)F)ccc1O[C@@H]1[C@@H]2CC[C@H]1CN(c1ccc(C(F)(F)F)cn1)C2 [5-90]
[1]
  rate of killed adults: 100%
[2]
  killed ... of the adults (eggs laid for 3 days investigated whether they could grow to adults on the eleventh day): 100%

## COC(=O)c1cc(C(F)(F)F)ccc1O[C@@H]1[C@@H]2CC[C@H]1CN(c1ccc(C(F)(F)F)cn1)C2 [5-243]
[1]
  rate of killed adults: 100%
[2]
  killed ... of the adults (eggs laid for 3 days investigated whether they could grow to adults on the eleventh day): 100%

## CC1COC(c2cc(C(F)(F)F)ccc2OC2C3CCC2CN(c2ccc(C(F)(F)F)cn2)C3)O1 (centres unmarked) [5-218]
[1]
  rate of killed adults: 100%
[2]
  killed ... of the adults (eggs laid for 3 days investigated whether they could grow to adults on the eleventh day): 100%

## CC(C)OC(=O)c1cc(C(F)(F)F)ccc1O[C@@H]1[C@@H]2CC[C@H]1CN(c1ccc(C(F)(F)F)cn1)C2 [5-245]
[1]
  rate of killed adults: 100%
[2]
  killed ... of the adults (eggs laid for 3 days investigated whether they could grow to adults on the eleventh day): 100%

## CC(C#N)OCc1cc(C(F)(F)F)ccc1OC1C2CCC1CN(c1ccc(C(F)(F)F)cn1)C2 (centres unmarked) [5-230]
[1]
  rate of killed adults: 100%
[2]
  killed ... of the adults (eggs laid for 3 days investigated whether they could grow to adults on the eleventh day): 100%

## C=C(C)COc1cc(C(F)(F)F)ccc1OC1C2CCC1CN(c1ccc(C(F)(F)F)cn1)C2 (centres unmarked) [5-174]
[1]
  rate of killed adults: 100%
[2]
  killed ... of the adults (eggs laid for 3 days investigated whether they could grow to adults on the eleventh day): 100%

## CC(C)(C)OC(=O)c1cc(C(F)(F)F)ccc1O[C@@H]1[C@@H]2CC[C@H]1CN(c1ccc(C(F)(F)F)cn1)C2 [5-257]
[1]
  rate of killed adults: 100%
[2]
  killed ... of the adults (eggs laid for 3 days investigated whether they could grow to adults on the eleventh day): 100%

## COCc1cc(C(F)(F)F)ccc1OC1CCN(c2ccc(C(F)(F)F)cn2)CC1 [1-63]
[1]
  rate of killed adults: 100%
[2]
  killed ... of the adults (eggs laid for 3 days investigated whether they could grow to adults on the eleventh day): 100%

## CC1CNC(c2cc(C(F)(F)F)ccc2O[C@@H]2[C@@H]3CC[C@H]2CN(c2ccc(C(F)(F)F)cn2)C3)O1 (some centres unmarked) [5-260]
[1]
  rate of killed adults: 100%
[2]
  killed ... of the adults (eggs laid for 3 days investigated whether they could grow to adults on the eleventh day): 100%

## CC1(C)COC(c2cc(C(F)(F)F)ccc2O[C@@H]2[C@@H]3CC[C@H]2CN(c2ccc(C(F)(F)F)cn2)C3)N1 (some centres unmarked) [5-262]
[1]
  rate of killed adults: 100%
[2]
  killed ... of the adults (eggs laid for 3 days investigated whether they could grow to adults on the eleventh day): 100%

## COCOC(C)c1cc(C(F)(F)F)ccc1O[C@@H]1[C@@H]2CC[C@H]1CN(c1ccc(C(F)(F)F)cn1)C2 (some centres unmarked) [5-73]
[1]
  rate of killed adults: 100%
[2]
  killed ... of the adults (eggs laid for 3 days investigated whether they could grow to adults on the eleventh day): 100%

## CC(C)Oc1cc(C(F)(F)F)ccc1OC1CCN(c2ccc(C(F)(F)F)cn2)CC1 [1-100]
[1]
  rate of killed adults: 100%
[2]
  killed ... of the adults (eggs laid for 3 days investigated whether they could grow to adults on the eleventh day): 100%

## FC(F)(F)c1ccc(N2CC3CCC(C2)C3Oc2ccc(C(F)(F)F)cc2C2CCCO2)nc1 (centres unmarked) [5-237]
[1]
  rate of killed adults: 100%
[2]
  killed ... of the adults (eggs laid for 3 days investigated whether they could grow to adults on the eleventh day): 100%

## COc1cc(C(F)(F)F)ccc1OC1CCN(c2ccc(C(F)(F)F)cn2)CC1 [1-88]
[1]
  rate of killed adults: 100%
[2]
  killed ... of the adults (eggs laid for 3 days investigated whether they could grow to adults on the eleventh day): 100%

## FC(F)(F)c1ccc(N2CC3CCC(C2)C3Oc2ccc(C(F)(F)F)cc2C2C=CCO2)nc1 (centres unmarked) [5-236]
[1]
  rate of killed adults: 100%
[2]
  killed ... of the adults (eggs laid for 3 days investigated whether they could grow to adults on the eleventh day): 100%

## CCOC(C)OCc1cc(C(F)(F)F)ccc1OC1C2CCC1CN(c1ccc(C(F)(F)F)cn1)C2 (centres unmarked) [5-229]
[1]
  rate of killed adults: 100%
[2]
  killed ... of the adults (eggs laid for 3 days investigated whether they could grow to adults on the eleventh day): 100%
